Experimental data as given in patent US7754272B2, “Local drug delivery” (Biocompatibles IK Limited, priority 1999, dated 2010).
≈ marks a conversion by molar mass, not a printed value.

Experiments:
[1] = cited from earlier work
[2] = Ex vivo human saphenous vein model, angiopeptin loaded stents
Experimental: More extensive work was conducted on angiopeptin loaded stents, to mimic the in vivo environment. The further examples use an ex vivo human saphenous vein model (as described by Armstrong, J. et al 1998. A purfused organ culture model to investigate drug release from coronary stents, Northern General Hospital, Sheffield (in press). The stents (produced as in Reference Example 1 below) were loaded using aqueous solutions of angiopeptin labeled with ^125I by the chloramine T method, into which the stent was dipped for half an hour at 37 C. The loaded stents were then allowed to air dry for one hour. Stents were in inserted into the vein, expanded by balloon catheter, washed in 10 ml culture medium for 10 s then placed in the purpose-built organ culture chamber bathed in 30 ml culture medium. The chamber was then connected to a circuit and 100 ml culture medium (HEPES-buffered RPMI 1640 culture medium (LIFE) supplemented with penicillin ([…]) streptomycin (100 units/ml) and glutamine (2 mM)) at 70 ml/min, then removed after 1 hour or 24 hours. The stent was subsequently examined to determine the proportion of angiopeptin which has eluted, whilst the vessel immediately surrounding the stent was investigated to determine the proportion of eluted drug found in the vessel. The culture medium was also analysed as was the explanted stent for radio activity.

[3] = In vivo porcine coronary artery model, angiopeptin loaded stents
Experimental: Further work was conducted to investigate the ability of the angiopeptin loaded stents to deliver angiopeptin tissue in an in vivo, in a porcine coronary artery model. […] The levels of angiopeptin remaining in the arterial wall immediately surrounding the stent was determined as well as the level recovered in blood and urine.

[4] = Aspirin loading and release, pre-coated stents; assay type: physicochemical; settings: for aspirin loaded: 15 mm stent, one hour, room temperature
Source text: Aspirin has anti platelet activity, which may be useful delivered locally from a stent. […] The solutions were used to load 15 mm stents having coatings produced according to Reference Example 1 (interior wall coating thickness around 350 nanometers, exterior wall coating thickness around 1400 nanometers). The stents were immersed in the aspirin solutions at room temperature for a period of one hour. The stent was removed from the solution, excess solution removed by gentle dabbing with absorbent tissue. Aspirin loading levels were determined by extracting the aspirin into 3 ml ethanol.

[5] = Dexamethasone phosphate and dexamethasone loading and elution, pre-coated stents; settings: for loading per stent: 20 C., 30 minutes
[6] = Etoposide/polymer premix coated stents, loading and release; assay type: physicochemical
Experimental: In this example, rather than precoating the polymer according to reference Example 1, followed by loading of drug, a premix of drug and crosslinkable polymer is formed and coated onto a stent. The crosslinkable polymer is identical to that used in Reference Example 1, 0.932 g polymer being dissolved into a 1:1 ethanol:water (by volume) mixture (50 ml). […] The coated stents were cured overnight at a temperature in the range 50 to 70 C.
The amount of drug loaded into the stents was determined by elution into an ethanol:water 50:50 (volume) mixture. […] The amount of etoposide eluted into ethanol:water is in this range.
The release rate, from the results, for the stent coated with a polymer crosslinked in the presence of drug indicate that the release of drug may not be slowed down as compared to the alternative system, where precoated stents are contacted with a solution of drug.

[7] = Roxithromycin loading and release, pre-coated stents; assay type: physicochemical
Experimental: Stents coated with polymer according to Reference Example 1 (15 mm) were loaded with roxithromycin from 5 g/l and 10 g/l solutions in ethanol or in ethanol:water 50:50 mixture. The level of loading of drug onto the stent was determined by elution from the stent into ethanol. […] The average loading for the 5 g/l solution was 58 μg per stent, whilst the 10 g/l solutions lead to loadings of around 70 μg for both solvent systems.
Stents loaded from the 10 g/l ethanolic solutions were subsequently contacted with phosphate buffered saline under gentle agitation and the release rate determined. […] The test was continued up to 48 hours, after which time 5 to 10% of roxithromycin remains in the coating.

[8] = Taxol loading of cross-linked polymer discs; assay type: physicochemical
Experimental: Polymers of the same compositions as used in example 8 are tested for taxol (paclitaxel) loading. Twenty discs were cut out of each membrane of polymer, placed on pieces of PTFE in petri dishes and dried in an oven at 60° C. for an hour. When cool the discs were placed into a solution of taxol and allowed to swell in a water bath at 37° C. for half an hour. The taxol solution was decanted off, the discs labelled and placed on the PTFE and allowed to air dry. The discs were then tested for determining total loadings.

[9] = Drug loading of HEMA-PC:HEMA:MMA:MBA crosslinked membrane; assay type: physicochemical; settings: HEMA-PC:HEMA:MMA:MBA copolymer swollen in aqueous drug solution, room temperature, over night
Source text: The polymers including MBA were polymerised in situ to form crosslinked membranes. […] The crosslinked polymers were used to form “infinite slabs” type membranes, to simulate the coating on a stent. […] The loaded levels were established to be the following: […]

[10] = Vitamin B12 loading of MBA-crosslinked HEMA-PC:LM polymers; assay type: physicochemical
Experimental: Polymers based on HEMA-PC:LM 1:2 with varying degrees of MBA crosslinker were tested to determine the effect of crosslinker on release of vitamin B12. The polymers were also tested for their water content when swollen to equilibrium in water at 37° C. The loading levels of vitamin B12 are recorded in table 2 below.
Also recorded in table 2 are similar results for MBA crosslinked copolymers based upon 1:1 copolymers of HEMA-PC and LM.

CO[C@H]1C[C@@H]2CC[C@@H](C)[C@@](O)(O2)C(=O)C(=O)N2CCCC[C@H]2C(=O)O[C@H]([C@H](C)C[C@@H]2CC[C@@H](O)[C@H](OC)C2)CC(=O)[C@H](C)/C=C(\C)[C@@H](O)[C@@H](OC)C(=O)[C@H](C)C[C@H](C)/C=C/C=C/C=C/1C [Rapamycin]
solubility in water [1]: 5 µg/mL (≈ 5.47 µM)

CC(C)[C@@H]1NC(=O)[C@H](CCCCN)NC(=O)[C@@H](Cc2c[nH]c3ccccc23)NC(=O)[C@H](Cc2ccc(O)cc2)NC(=O)[C@@H](NC(=O)[C@H](N)Cc2ccc3ccccc3c2)CSSC[C@@H](C(=O)N[C@H](C(N)=O)[C@@H](C)O)NC1=O [angiopeptin]
share of angiopeptin eluted from stent ([2]; after 1 hour): 93%
share of eluted drug in the surrounding vessel ([2]; after 1 hour): 13.9%
share of angiopeptin eluted from stent ([2]; after 24 hours): 97%
share of eluted drug remaining in the vessel ([2]; after 24 hours): 7.4%
share of detected angiopeptin located in tissue other than the heart ([3]; 1 to 28 days): less than 1%
angiopeptin in blood ([3]; after 5 min): 0.08 µg/mL
angiopeptin in urine ([3]; after 1 hour): 0.29 µg/mL
share of angiopeptin remaining on the stent ([3]; after 1 hour): 9%
angiopeptin in blood ([3]; after 24 hours): around 0.01 μg/ml
share of angiopeptin remaining on the stent ([3]; after 24 hours): 4%
share of angiopeptin remaining on the stent ([3]; after 7 days): 1.5%
angiopeptin in urine ([3]; after 28 days): 0.01 µg/mL
angiopeptin in blood compared with 5 min ([3]; after one hour): about the same
level of angiopeptin in tissue ([3]; arterial wall surrounding the stent, after 24 hours): around 400 pg/ml
angiopeptin in blood ([3]; at 7 to 28 days): No angiopeptin could be found
share of released angiopeptin localised in the left anterior descending coronary artery ([3]; at 1 hour): 84%
level of angiopeptin in tissue ([3]; at 7 days): around 360 pg/ml
level of angiopeptin in tissue ([3]; at 28 days): around 200 pg/ml

CC(=O)Oc1ccccc1C(=O)O [aspirin, Aspirin]
solubility in water [1]: only partially soluble in water
aspirin loaded ([4]; 10 g/l in ethanol): around 10 μg
aspirin loaded ([4]; 40 g/l in ethanol): around 40 μg
share of drug eluted ([4]; into phosphate buffered saline, after about 1 hour): around 90%

C[C@@H]1C[C@H]2[C@@H]3CCC4=CC(=O)C=C[C@]4(C)[C@@]3(F)[C@@H](O)C[C@]2(C)[C@@]1(O)C(=O)COP(=O)(O)O [dexamethasone phosphate, Dexamethasone phosphate]
loading per stent ([5]; 1.0 g/l in water): 9 μg per stent
loading per stent ([5]; 2.0 g/l in water): 14 µg
loading per stent ([5]; 5.0 g/l in water): 20 µg
time by which effectively all the drug is released ([5]; elution test): ≤ 1 h

C[C@@H]1C[C@H]2[C@@H]3CCC4=CC(=O)C=C[C@]4(C)[C@@]3(F)[C@@H](O)C[C@]2(C)[C@@]1(O)C(=O)CO [dexamethasone, Dexamethasone]
solubility in water [1]: less water soluble than dexamethasone phosphate

COc1cc([C@@H]2c3cc4c(cc3[C@@H](O[C@@H]3O[C@@H]5CO[C@@H](C)O[C@H]5[C@H](O)[C@H]3O)[C@H]3COC(=O)[C@H]23)OCO4)cc(OC)c1O [etoposide]
solubility in water [1]: only slightly soluble in water
time at which release plateaued ([6]; into 5 ml phosphate buffered saline): around 5 minutes
average etoposide loading ([6]; premix coated stent, eluted into ethanol:water 50:50): around 12 μg per stent

CC[C@H]1OC(=O)[C@H](C)[C@@H](O[C@H]2C[C@@](C)(OC)[C@@H](O)[C@H](C)O2)[C@H](C)[C@@H](O[C@@H]2O[C@H](C)C[C@H](N(C)C)[C@H]2O)[C@](C)(O)C[C@@H](C)/C(=N\OCOCCOC)[C@H](C)[C@@H](O)[C@]1(C)O [roxithromycin, Roxithromycin]
solubility in water [1]: substantially insoluble in water
average loading ([7]; 15 mm stent, 5 g/l solution): 58 μg per stent
loading ([7]; 15 mm stent, 10 g/l solutions, ethanol and ethanol:water 50:50): around 70 μg
share of compound released ([7]; PBS, gentle agitation, after 24 hours, loaded from 10 g/l ethanolic solution): around half

CC(=O)O[C@H]1C(=O)[C@@]2(C)[C@H]([C@H](OC(=O)c3ccccc3)[C@]3(O)C[C@H](OC(=O)[C@H](O)[C@@H](NC(=O)c4ccccc4)c4ccccc4)C(C)=C1C3(C)C)[C@]1(OC(C)=O)CO[C@@H]1C[C@@H]2O [taxol, paclitaxel]
Total Loading (μg per disc) ([8]; Series 1, 1st polymer (Table 4 HEMA-PC:LM:Hpm:TMSPM 13:39:15:5)): 35.2 μg per disc
Total Loading (μg per disc) ([8]; Series 1, 2nd polymer (Table 4 53:39:15:5)): 80 μg per disc
Total Loading (μg per disc) ([8]; Series 1, 3rd polymer (Table 4 13:55:15:5)): 15 μg per disc
Total Loading (μg per disc) ([8]; Series 1, 4th polymer (Table 4 33:55:15:5)): 18.1 μg per disc
Total Loading (μg per disc) ([8]; Series 2, 1st polymer (Table 4 13:39:15:9)): 51.7 μg per disc
Total Loading (μg per disc) ([8]; Series 2, 2nd polymer (Table 4 33:39:15:9)): 57 μg per disc
Total Loading (μg per disc) ([8]; Series 2, 3rd polymer (Table 4 13:55:15:9)): 18.6 μg per disc
Total Loading (μg per disc) ([8]; Series 2, 4th polymer (Table 4 33:55:15:9)): 10 μg per disc
Total Loading (μg per disc) ([8]; Series 3, 1st polymer (Table 4 13:39:35:5)): 55.2 μg per disc
Total Loading (μg per disc) ([8]; Series 3, 2nd polymer (Table 4 33:39:35:5)): 11.2 μg per disc
Total Loading (μg per disc) ([8]; Series 3, 3rd polymer (Table 4 13:55:35:5)): 5.4 μg per disc
Total Loading (μg per disc) ([8]; Series 3, 4th polymer (Table 4 33:55:35:5)): 25.3 μg per disc
Total Loading (μg per disc) ([8]; Series 4, 1st polymer (Table 4 13:39:35:9)): 23.8 μg per disc
Total Loading (μg per disc) ([8]; Series 4, 2nd polymer (Table 4 33:39:35:9)): 60.5 μg per disc
Total Loading (μg per disc) ([8]; Series 4, 3rd polymer (Table 4 13:55:35:9)): 24.3 μg per disc
Total Loading (μg per disc) ([8]; Series 4, 4th polymer (Table 4 33:55:35:9)): 64 μg per disc

rhodamine
Loading (mg/g polymer) [9]: 85 mg/g polymer

vitamin B12
Vitamin B12 Load (mg/g polymer) ([10]; HEMA-PC:LM 1:1, crosslinker 0.28 mole %): 26.13 mg/g polymer
Vitamin B12 Load (mg/g polymer) ([10]; HEMA-PC:LM 1:1, crosslinker 0.5 mole %): 19.83 mg/g polymer
Vitamin B12 Load (mg/g polymer) ([10]; HEMA-PC:LM 1:1, crosslinker 1 mole %): 11.89 mg/g polymer
Vitamin B12 Load (mg/g polymer) ([10]; HEMA-PC:LM 1:1, crosslinker 2 mole %): 8.44 mg/g polymer
Vitamin B12 Load (mg/g polymer) ([10]; HEMA-PC:LM 1:1, crosslinker 5 mole %): 4.94 mg/g polymer
Vitamin B12 Load (mg/g polymer) ([10]; HEMA-PC:LM 1:2, crosslinker 0.28 mole %): 11.73 mg/g polymer
Vitamin B12 Load (mg/g polymer) ([10]; HEMA-PC:LM 1:2, crosslinker 0.5 mole %): 10.68 mg/g polymer
Vitamin B12 Load (mg/g polymer) ([10]; HEMA-PC:LM 1:2, crosslinker 1 mole %): 11.4 mg/g polymer
Vitamin B12 Load (mg/g polymer) ([10]; HEMA-PC:LM 1:2, crosslinker 2 mole %): 4.66 mg/g polymer
Vitamin B12 Load (mg/g polymer) ([10]; HEMA-PC:LM 1:2, crosslinker 5 mole %): 1.96 mg/g polymer
Vitamin B12 Load (mg/g polymer) ([10]; HEMA-PC:LM 1:2, crosslinker 10 mole %): 0 mg/g polymer
Loading (mg/g polymer) [9]: 40 mg/g polymer
